According to patent US12054510B2, “2′ and/or 5′ amino-acid ester phosphoramidate 3′-deoxy adenosine derivatives as anti-cancer compounds” (Nucana plc, priority 2014, dated 2024):

Legend:
Format in all cases: cell-based
K562 = assay: CellTiterGlo cell viability assay, initial screening; details: 72 hr, Table II
Procedure: (§1) In vitro viability assays were performed to assess the effects of compounds on cell viability in 7 selected cell lines over 72 hr using the CellTiterGlo (CTG, Promega-G7573) assay. The tests were performed in duplicates with treatment of compounds at 9 points, 3.16 folds titration in 96 well plates over ˜72 hr. The compound starting concentrations were […]. Cell viability assay using CellTiterGlo in 96-well plate were performed. The compound treatment was 72 hrs, under standard growth conditions, and in duplicate. Compounds were dissolved to 40 mM with thawed […]. Compounds were serially diluted at 3.16 fold in thawed DMSO, and warmed to 37° C. before being dissolved in media (2 μl+200 μl). After compounds were dissolved in media (media was also warmed to 37° C.). Media containing compounds were warmed to 37° C. in incubator and then compounds in media were added to cell plates (50 μl+50 μl), in duplicates. The compounds final concentrations were from […] to 19.9 nM. All compound solubilities were checked and recorded again, then the plates were transferred to CO2 tissue culture incubator immediately and incubated for 3 days. DMSO final concentration is 0.5%.

MOLT-4 = assay: as above
Procedure: as §1

CCRF-CEM = assay: as above
Procedure: as §1

MCF-7 = assay: as above; details: MCF-7; 72 hr; Table II
Procedure: as §1

KG-1 = assay: as above
Procedure: as §1

HepG2 = assay: as above; details: for M.I. %: maximum percentage inhibition of cell viability: HepG2, 72 hr, Table II
Procedure: as §1

HL-60 = assay: as above; details: for IC50: Homo sapiens, HL-60, 72 h, read-out: IC50 (relative IC50)
Procedure: as §1

[1] = tested on: leukaemic stem cell (LSC) compartment within the KG1a cell line; assay: Immunophenotypic identification of the leukaemic stem cell compartment; details: 72 h; for targeting of LSCs (LSC as percentage of all viable cells left in culture): FIG. 2-4; for preferential targeting of LSCs compared with the parent nucleoside: compound A at 1 mM and above
Procedure: KG1a cells were cultured for 72 h in the presence of a wide range of concentrations of each compound assayed. Cells were then harvested and labelled with a cocktail of anti-lineage antibodies (PE-cy7), anti-CD34 (FITC), anti-CD38 (PE) and anti-CD123 (PERCP cy5). The sub-population expressing a LSC phenotype were subsequently identified and were expressed as a percentage of all viable cells left in the culture. The percentages of stem cells remaining were then plotted on a dose-response graph and the effects of the compounds were compared with each other, and with the parent nucleoside.
The data obtained in these experiments were evaluated using one way ANOVA. All data was confirmed as Gaussian or a Gaussian approximation using the omnibus K2 test. LD50 values were calculated from the non-linear regression and line of best-fit analysis of the sigmoidal dose-response curves. All statistical analyses were performed using Graphpad Prism 6.0 software (Graphpad Software Inc., San Diego, CA).

| Compound | M.I. %: maximum percentage inhibition of cell viability (K562) | M.I. %: maximum percentage inhibition of cell viability (MOLT-4; MOLT-4, 72 hr, Table II) | M.I. %: maximum percentage inhibition of cell viability (CCRF-CEM; CCRF-CEM, 72 hr, Table II) | M.I. %: maximum percentage inhibition of cell viability (MCF-7) | M.I. %: maximum percentage inhibition of cell viability (KG-1; KG-1, 72 hr, Table II) | M.I. %: maximum percentage inhibition of cell viability (HepG2) | M.I. %: maximum percentage inhibition of cell viability (HL-60; HL-60, 72 hr, Table II) | targeting of LSCs (LSC as percentage of all viable cells left in culture) [1] | preferential targeting of LSCs compared with the parent nucleoside [1] | also measured |
| --- | --- | --- | --- | --- | --- | --- | --- | --- | --- | --- |
| C[C@H](NP(=O)(Oc1cccc2ccccc12)O[C@@H]1C[C@@H](CO)O[C@H]1n1cnc2c(N)ncnc21)C(=O)OCc1ccccc1 (stereo partly drawn) [Compound I, (2S)-benzyl 2-(((((2R,3R,5S)-2-(6-amino-9H-purin-9-yl)-5-(hydroxymethyl)tetrahydro-furan-3-yl)oxy)(naphthalen-1-yloxy)phosphoryl)amino)propanoate] | 87% | 100% | 99% | 99% | 93% | 90% | 99% |  |  |  |
| C[C@H](NP(=O)(OC[C@@H]1C[C@@H](OP(=O)(N[C@@H](C)C(=O)OCc2ccccc2)Oc2ccccc2)[C@H](n2cnc3c(N)ncnc32)O1)Oc1ccccc1)C(=O)OCc1ccccc1 (stereo partly drawn) [H, Benzyl 2-(((((2S,4R,5R)-5-(6-amino-9H-purin-9-yl)-4-((((1-(benzyloxy)-1-oxopropan-2-yl)amino)(phenoxy)phosphoryl)oxy)tetrahydrofuran-2-yl)methoxy)(phenoxy)phosphoryl)-amino)propanoate] | 89% | 100% | 100% | 94% | 69% | 55% | 80% |  |  | IC50 (HL-60): 15 to 100 µM |
| C[C@H](NP(=O)(N[C@@H](C)C(=O)OCc1ccccc1)OC[C@@H]1CC(O)[C@H](n2cnc3c(N)ncnc32)O1)C(=O)OCc1ccccc1 (stereo in doubt) [Compound J, Benzyl 2-[({[5-(6-amino-9H-purin-9-yl)-4-hydroxyoxolan-2-yl]methoxy}({[1-(benzyloxy)-1-oxopropan-2-yl]amino})phosphoryl)amino]propanoate] | 97% |  |  | 97% |  | 55% |  |  |  | M.I. %: maximum percentage inhibition of cell viability (MOLT-4; human, 72 h): 100%; M.I. %: maximum percentage inhibition of cell viability (CCRF-CEM; human, 72 h): 100%; M.I. %: maximum percentage inhibition of cell viability (KG-1; human, 72 h): 29%; M.I. %: maximum percentage inhibition of cell viability (HL-60; human, 72 h): 98% |
| C[C@H](NP(=O)(OC[C@@H]1C[C@@H](O)[C@H](n2cnc3c(N)nc(F)nc32)O1)Oc1ccccc1)C(=O)OCc1ccccc1 (mixture of isomers) [P, (2S)-benzyl 2-(((((2S,4R,5R)-5-(6-amino-2-fluoro-9H-purin-9-yl)-4-hydroxytetrahydrofuran-2-yl)methoxy)(phenoxy)phosphoryl)amino)propanoate] |  |  |  |  |  |  |  | preferential targeting of LSCs | significantly improved when compared with the parental nucleoside |  |
| C[C@H](NP(=O)(Oc1ccccc1)O[C@@H]1C[C@@H](CO)O[C@H]1n1cnc2c(N)ncnc21)C(=O)OCc1ccccc1 (stereo partly drawn) [G, (2S)-benzyl 2-(((((2R,3R,5S)-2-(6-amino-9H-purin-9-yl)-5-(hydroxymethyl)tetrahydro-furan-3-yl)oxy)(phenoxy)phosphoryl)amino)propanoate] | 78% | 75% | 65% | 97% | 63% | 67% | 57% |  |  | IC50 (HepG2; Homo sapiens, HepG2, 72 h, read-out: IC50 (relative IC50)): 15 to 100 µM; IC50 (HL-60): 15 to 100 µM |
| CCCCCCOC(=O)[C@H](C)NP(=O)(OC[C@@H]1C[C@@H](O)[C@H](n2cnc3c(N)nc(F)nc32)O1)Oc1ccccc1 (stereo partly drawn) [R, (2S)-hexyl 2-(((((2S,4R,5R)-5-(6-amino-2-fluoro-9H-purin-9-yl)-4-hydroxytetrahydrofuran-2-yl)methoxy)(phenoxy)phosphoryl)amino)propanoate] |  |  |  |  |  |  |  | preferential targeting of LSCs | significantly improved when compared with the parental nucleoside |  |
| CCCCCOC(=O)[C@H](CC(C)C)NP(=O)(OC[C@@H]1C[C@H](O)[C@H](n2cnc3c(N)nc(F)nc32)O1)Oc1cccc2ccccc12 (stereo partly drawn) [Compound Q, 2-Fluoro-3′-deoxyadenosine-5′-O-[1-naphthyhl(1-pentyloxy-L-leucinyl)]phosphate] |  |  |  |  |  |  |  | preferential targeting of LSCs | significantly improved when compared with the parental nucleoside |  |
| C[C@H](NP(=O)(OC[C@@H]1C[C@H](O)[C@H](n2cnc3c(N)nc(F)nc32)O1)Oc1cccc2ccccc12)C(=O)OCc1ccccc1 (stereo partly drawn) [Compound O] |  |  |  |  |  |  |  | able to bring about a reduction in the proportion of LSCs | not significantly different to 2-F-Cordycepin |  |
